Reference: PubChem BioAssay AID2060612 (Molecular Pharmacology Branch, DTP, NCI, 2025)

System: 565232-114-T-J1-PDC complex spheroid viability
Test: Anticancer human tumor 565232-114-T-J1-PDC patient-derived bladder carcinoma cell line growth inhibition [CLK]
Settings: for viability, T/C: stronger effect = lower value
Method in brief: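 Multi-cell-type spheroids combined patient-derived tumor cells with HUVEC endothelial cells and human mesenchymal stem cells. Paired agents were dosed in half-log steps down from about clinical Cmax, or from 10 microM where Cmax was unknown.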

[1] = curve of first compound, second compound 0.0316 µM
[2] = curve of first compound, second compound 0.1 µM
[3] = curve of first compound, second compound 0.316 µM
[4] = curve of first compound, second compound 1 µM
[5] = curve of first compound, second compound 3.16 µM
[6] = curve of first compound, second compound 10 µM
[7] = second compound 0.0316 µM, first compound 0.0316 µM
[8] = second compound 0.0316 µM, first compound 0.1 µM
[9] = second compound 0.0316 µM, first compound 0.316 µM
[10] = second compound 0.0316 µM, first compound 1 µM
[11] = second compound 0.0316 µM, first compound 3.16 µM
[12] = second compound 0.0316 µM, first compound 10 µM
[13] = second compound 0.1 µM, first compound 0.0316 µM
[14] = second compound 0.1 µM, first compound 0.1 µM
[15] = second compound 0.1 µM, first compound 0.316 µM
[16] = second compound 0.1 µM, first compound 1 µM
[17] = second compound 0.1 µM, first compound 3.16 µM
[18] = second compound 0.1 µM, first compound 10 µM
[19] = second compound 0.316 µM, first compound 0.0316 µM
[20] = second compound 0.316 µM, first compound 0.1 µM
[21] = second compound 0.316 µM, first compound 0.316 µM
[22] = second compound 0.316 µM, first compound 1 µM
[23] = second compound 0.316 µM, first compound 3.16 µM
[24] = second compound 0.316 µM, first compound 10 µM
[25] = second compound 1 µM, first compound 0.0316 µM
[26] = second compound 1 µM, first compound 0.1 µM
[27] = second compound 1 µM, first compound 0.316 µM
[28] = second compound 1 µM, first compound 1 µM
[29] = second compound 1 µM, first compound 3.16 µM
[30] = second compound 1 µM, first compound 10 µM
[31] = second compound 3.16 µM, first compound 0.0316 µM
[32] = second compound 3.16 µM, first compound 0.1 µM
[33] = second compound 3.16 µM, first compound 0.316 µM
[34] = second compound 3.16 µM, first compound 1 µM
[35] = second compound 3.16 µM, first compound 3.16 µM
[36] = second compound 3.16 µM, first compound 10 µM
[37] = second compound 10 µM, first compound 0.0316 µM
[38] = second compound 10 µM, first compound 0.1 µM
[39] = second compound 10 µM, first compound 0.316 µM
[40] = second compound 10 µM, first compound 1 µM
[41] = second compound 10 µM, first compound 3.16 µM
[42] = second compound 10 µM, first compound 10 µM
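Further: spheroids exposed to compounds for 7 days before readout.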
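Wherever viability, T/C is given: 100% = DMSO vehicle wells with luminescence normalized to vehicle control.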

## COc1cccc2c1C(=O)c1c(O)c3c(c(O)c1C2=O)CC(O)(C(=O)CO)CC3OC1CC(N)C(O)C(C)O1 (stereo not given) + CNC(=O)c1ccc(Nc2nc(OC3CCCC3)c3c(-c4ccc5nc(C)oc5c4)c[nH]c3n2)c(OC)c1
[1]
  IC50: 115 nM
[2]
  IC50: < 31.6 nM
[3]
  IC50: < 31.6 nM
[4]
  IC50: < 31.6 nM
[5]
  IC50: < 31.6 nM
[6]
  IC50: < 31.6 nM
[7]
  viability, T/C: 96.7%
[8]
  viability, T/C: 55.5%
[9]
  viability, T/C: 10%
[10]
  viability, T/C: 0.25%
[11]
  viability, T/C: 0.24%
[12]
  viability, T/C: 0.28%
[13]
  viability, T/C: 44.4%
[14]
  viability, T/C: 22.9%
[15]
  viability, T/C: 7.66%
[16]
  viability, T/C: 0.28%
[17]
  viability, T/C: 0.22%
[18]
  viability, T/C: 0.23%
[19]
  viability, T/C: 21.8%
[20]
  viability, T/C: 18.6%
[21]
  viability, T/C: 5.6%
[22]
  viability, T/C: 0.86%
[23]
  viability, T/C: 0.19%
[24]
  viability, T/C: 1.3%
[25]
  viability, T/C: 15.9%
[26]
  viability, T/C: 12.4%
[27]
  viability, T/C: 3.59%
[28]
  viability, T/C: 0.42%
[29]
  viability, T/C: 0.14%
[30]
  viability, T/C: 0.26%
[31]
  viability, T/C: 12.7%
[32]
  viability, T/C: 9.58%
[33]
  viability, T/C: 2.15%
[34]
  viability, T/C: 0.1%
[35]
  viability, T/C: 0.69%
[36]
  viability, T/C: 0.49%
[37]
  viability, T/C: 13.7%
[38]
  viability, T/C: 9.24%
[39]
  viability, T/C: 3.57%
[40]
  viability, T/C: 0.73%
[41]
  viability, T/C: 1.86%
[42]
  viability, T/C: 0.29%

## CC1(C)CCC(CN2CCN(c3ccc(C(=O)NS(=O)(=O)c4ccc(NCC5CCOCC5)c([N+](=O)[O-])c4)c(Oc4cnc5[nH]ccc5c4)c3)CC2)=C(c2ccc(Cl)cc2)C1 + CN1CCN(c2cc(C(=O)Nc3cc4cc(-c5cnn(C)c5)ccc4cn3)ccn2)CC1
[1]
  IC50: 9100 nM
[2]
  IC50: 8010 nM
[3]
  IC50: < 31.6 nM
[4]
  IC50: < 31.6 nM
[5]
  IC50: < 31.6 nM
[6]
  IC50: < 31.6 nM
[7]
  viability, T/C: 104%
[8]
  viability, T/C: 89%
[9]
  viability, T/C: 98.6%
[10]
  viability, T/C: 95.9%
[11]
  viability, T/C: 79.5%
[12]
  viability, T/C: 47.4%
[13]
  viability, T/C: 88.2%
[14]
  viability, T/C: 79.3%
[15]
  viability, T/C: 95.1%
[16]
  viability, T/C: 119%
[17]
  viability, T/C: 82.2%
[18]
  viability, T/C: 42.3%
[19]
  viability, T/C: 13.7%
[20]
  viability, T/C: 18.3%
[21]
  viability, T/C: 18.5%
[22]
  viability, T/C: 17.6%
[23]
  viability, T/C: 22.8%
[24]
  viability, T/C: 11.4%
[25]
  viability, T/C: 1.1%
[26]
  viability, T/C: 0.27%
[27]
  viability, T/C: 0.22%
[28]
  viability, T/C: 0.2%
[29]
  viability, T/C: 0.21%
[30]
  viability, T/C: 0.31%
[31]
  viability, T/C: 0.35%
[32]
  viability, T/C: 2.16%
[33]
  viability, T/C: 1.93%
[34]
  viability, T/C: 0.23%
[35]
  viability, T/C: 1.8%
[36]
  viability, T/C: 1.49%
[37]
  viability, T/C: 0.16%
[38]
  viability, T/C: 1.55%
[39]
  viability, T/C: 1.55%
[40]
  viability, T/C: 0.15%
[41]
  viability, T/C: 0.15%
[42]
  viability, T/C: 0.8%

## Cn1ncnc1[C@H]1c2n[nH]c(=O)c3cc(F)cc(c23)N[C@@H]1c1ccc(F)cc1 + CN1CCN(c2cc(C(=O)Nc3cc4cc(-c5cnn(C)c5)ccc4cn3)ccn2)CC1
[1]
  IC50: > 100 nM
[2]
  IC50: > 100 nM
[3]
  IC50: < 0.316 nM
[4]
  IC50: < 0.316 nM
[5]
  IC50: < 0.316 nM
[6]
  IC50: < 0.316 nM
Second compound 0.0316 µM, first compound 0.000316 µM
  viability, T/C: 100%
Second compound 0.0316 µM, first compound 0.001 µM
  viability, T/C: 76.1%
Second compound 0.0316 µM, first compound 0.00316 µM
  viability, T/C: 91.5%
Second compound 0.0316 µM, first compound 0.01 µM
  viability, T/C: 82.1%
[7]
  viability, T/C: 135%
[8]
  viability, T/C: 102%
Second compound 0.1 µM, first compound 0.000316 µM
  viability, T/C: 86.2%
Second compound 0.1 µM, first compound 0.001 µM
  viability, T/C: 84.3%
Second compound 0.1 µM, first compound 0.00316 µM
  viability, T/C: 111%
Second compound 0.1 µM, first compound 0.01 µM
  viability, T/C: 112%
[13]
  viability, T/C: 110%
[14]
  viability, T/C: 90.9%
Second compound 0.316 µM, first compound 0.000316 µM
  viability, T/C: 16.9%
Second compound 0.316 µM, first compound 0.001 µM
  viability, T/C: 24%
Second compound 0.316 µM, first compound 0.00316 µM
  viability, T/C: 20.2%
Second compound 0.316 µM, first compound 0.01 µM
  viability, T/C: 21.3%
[19]
  viability, T/C: 21.5%
[20]
  viability, T/C: 19.5%
Second compound 1 µM, first compound 0.000316 µM
  viability, T/C: 0.16%
Second compound 1 µM, first compound 0.001 µM
  viability, T/C: 0.26%
Second compound 1 µM, first compound 0.00316 µM
  viability, T/C: 1.61%
Second compound 1 µM, first compound 0.01 µM
  viability, T/C: 0.19%
[25]
  viability, T/C: 1.31%
[26]
  viability, T/C: 0.83%
Second compound 3.16 µM, first compound 0.000316 µM
  viability, T/C: 0.42%
Second compound 3.16 µM, first compound 0.001 µM
  viability, T/C: 0.22%
Second compound 3.16 µM, first compound 0.00316 µM
  viability, T/C: 2.43%
Second compound 3.16 µM, first compound 0.01 µM
  viability, T/C: 0.14%
[31]
  viability, T/C: 1.43%
[32]
  viability, T/C: 2.75%
Second compound 10 µM, first compound 0.000316 µM
  viability, T/C: 0.15%
Second compound 10 µM, first compound 0.001 µM
  viability, T/C: 1.85%
Second compound 10 µM, first compound 0.00316 µM
  viability, T/C: 1.09%
Second compound 10 µM, first compound 0.01 µM
  viability, T/C: 1.69%
[37]
  viability, T/C: 0.53%
[38]
  viability, T/C: 1.35%

## COc1c(OCCCN2CCOCC2)ccc2c3n(c(=NC(=O)c4cnc(N)nc4)nc12)CCN3
Compound 0.00316 µM
  viability, T/C: 97.1%
Compound 0.01 µM
  viability, T/C: 78.6%
Compound 0.0316 µM
  viability, T/C: 101%
Compound 0.1 µM
  viability, T/C: 103%
Compound 0.316 µM
  viability, T/C: 120%
Compound 1 µM
  viability, T/C: 66.1%
Curve of compound
  IC50: > 1000 nM

## Nc1ccn(C2OC(CO)C(O)C2(F)F)c(=O)n1 (stereo not given) + CNC(=O)c1ccc(Nc2nc(OC3CCCC3)c3c(-c4ccc5nc(C)oc5c4)c[nH]c3n2)c(OC)c1
[1]
  IC50: 36 nM
[2]
  IC50: < 31.6 nM
[3]
  IC50: < 31.6 nM
[4]
  IC50: < 31.6 nM
[5]
  IC50: < 31.6 nM
[6]
  IC50: < 31.6 nM
[7]
  viability, T/C: 54.3%
[8]
  viability, T/C: 18.6%
[9]
  viability, T/C: 8.71%
[10]
  viability, T/C: 7.4%
[11]
  viability, T/C: 11.2%
[12]
  viability, T/C: 13.6%
[13]
  viability, T/C: 35.7%
[14]
  viability, T/C: 22%
[15]
  viability, T/C: 8.15%
[16]
  viability, T/C: 9.21%
[17]
  viability, T/C: 13.3%
[18]
  viability, T/C: 11.8%
[19]
  viability, T/C: 26.2%
[20]
  viability, T/C: 19.5%
[21]
  viability, T/C: 8.41%
[22]
  viability, T/C: 7.45%
[23]
  viability, T/C: 12.3%
[24]
  viability, T/C: 12.2%
[25]
  viability, T/C: 16.9%
[26]
  viability, T/C: 14.9%
[27]
  viability, T/C: 8.75%
[28]
  viability, T/C: 7.6%
[29]
  viability, T/C: 9.48%
[30]
  viability, T/C: 8.93%
[31]
  viability, T/C: 19.3%
[32]
  viability, T/C: 14.5%
[33]
  viability, T/C: 5.99%
[34]
  viability, T/C: 5.99%
[35]
  viability, T/C: 6.76%
[36]
  viability, T/C: 6.01%
[37]
  viability, T/C: 17.7%
[38]
  viability, T/C: 13.9%
[39]
  viability, T/C: 6.66%
[40]
  viability, T/C: 6.31%
[41]
  viability, T/C: 6.89%
[42]
  viability, T/C: 5.15%
